Data: patent publication US5567692A, “9-[(substituted glycyl) amido)]-6-demethyl-6-deoxytetracyclines” (priority 1995, dated 1996)
Counter-ions that a name gives are not always drawn. Like-named read-outs stand apart in the source and are kept apart here.

Columns and labels:
Format in all cases: cell-based
[1] = tested on: E. coli J2175; test: MIC, agar dilution; conditions: Escherichia coli, 18 h, read-out: MIC
[2] = tested on: S. aureus UBMS 90-2 Tet M; test: microbe, parasite or virus in culture; conditions: Staphylococcus aureus, UBMS902TETM, 18 h
[3] = tested on: Enterococcus 12201; test: MIC, agar dilution; conditions: Enterococcus, 12201, 18 h
[4] = tested on: S. aureus UBMS 88-4; test: MIC, agar dilution; conditions: Staphylococcus aureus, UBMS884, 18 h
[5] = tested on: E. coli UBMS 90-5; test: microbe, parasite or virus in culture; conditions: Escherichia coli, UBMS905, 18 h
[6] = tested on: E. coli UBMS 89-1 Tet M; test: microbe, parasite or virus in culture; conditions: Escherichia coli, UBMS891TETM, 18 h
[7] = tested on: S. aureus IVES 1983; test: MIC, agar dilution; conditions: Staphylococcus aureus, IVES1983, 18 h
[8] = tested on: S. aureus UBMS 88-5 Tet M; test: microbe, parasite or virus in culture; conditions: Staphylococcus aureus, UBMS885TETM, 18 h
[9] = tested on: S. aureus UBMS 88-7 Tet K; test: microbe, parasite or virus in culture; conditions: Staphylococcus aureus, UBMS887TETK, 18 h
[10] = tested on: E. coli ATCC 25922; test: MIC, agar dilution; conditions: Escherichia coli, ATCC25922, 18 h
[11] = tested on: E. coli BAJ9003 IMP MUT; test: microbe, parasite or virus in culture; conditions: Escherichia coli, BAJ9003IMPMUT, 18 h
[12] = tested on: S. aureus ROSE (MP); test: MIC, agar dilution; conditions: Staphylococcus aureus, 18 h
[13] = tested on: S. aureus NEMC 8769; test: MIC, agar dilution; conditions: Staphylococcus aureus, NEMC8769, 18 h
[14] = tested on: Ps. aeruginosa ATCC 27853; test: MIC, agar dilution; conditions: Pseudomonas aeruginosa, ATCC27853, 18 h
[15] = tested on: E. coli PRP1 Tet A; test: microbe, parasite or virus in culture; conditions: Escherichia coli, PRP1TETA, 18 h
[16] = tested on: E. coli UBMS 90-4 Tet M; test: microbe, parasite or virus in culture; conditions: Escherichia coli, UBMS904TETM, 18 h
[17] = tested on: S. marcescens FPOR 8733; test: MIC, agar dilution; conditions: Serratia marcescens, FPOR8733, 18 h
[18] = tested on: E. coli J3272 Tet D; test: microbe, parasite or virus in culture; conditions: Escherichia coli, J3272TETD, 18 h
[19] = tested on: S. aureus UBMS 90-3; test: MIC, agar dilution; conditions: Staphylococcus aureus, UBMS903, 18 h
[20] = tested on: S. aureus SMITH (MP); test: MIC, agar dilution; conditions: Staphylococcus aureus, 18 h
[21] = tested on: S. hemolyticus AVHAH 88-3; test: MIC, agar dilution; conditions: Streptococcus pyogenes, AVHAH883, 18 h
[22] = tested on: S. aureus ATCC 29213; test: MIC, agar dilution; conditions: Staphylococcus aureus, ATCC29213, 18 h, S. aureus ATCC 29213
[23] = tested on: E. coli J3272 Tet C; test: microbe, parasite or virus in culture; conditions: Escherichia coli, J3272TETC, 18 h
[24] = tested on: E. faecalis ATCC 29212; test: MIC, agar dilution; conditions: Enterococcus faecalis, ATCC29212, 18 h
[25] = tested on: S. aureus IVES 2943; test: MIC, agar dilution; conditions: Staphylococcus aureus, IVES2943, 18 h
[26] = tested on: E. coli #311 (MP); test: MIC, agar dilution; conditions: Escherichia coli, 18 h
[27] = tested on: E. coli UBMS 88-1 Tet B; test: microbe, parasite or virus in culture; conditions: Escherichia coli, UBMS881TETB, 18 h
[28] = tested on: X. maltophilia NEMC 87210; test: MIC, agar dilution; conditions: Stenotrophomonas maltophilia, NEMC87210, 18 h
[29] = tested on: E. coli UBMS 89-2 Tet sens.; test: MIC, agar dilution; conditions: Escherichia coli, 18 h; E. coli UBMS 89-2 Tet sens.; read-out: MIC
[30] = tested on: S. aureus UBMS 90-1 Tet M; test: microbe, parasite or virus in culture; conditions: Staphylococcus aureus, UBMS901TETM, 18 h
[31] = tested on: E. coli MC 4100 Tet sens.; test: MIC, agar dilution; conditions: Escherichia coli, 18 h
[32] = tested on: E. coli MC 4100 TNIOC Tet B; test: microbe, parasite or virus in culture; conditions: Escherichia coli, 18 h
[33] = E. coli UBMS 90-5, read-out: MIC
[34] = S. aureus IVES 1983, read-out: MIC
[35] = Ps. aeruginosa ATCC 27853, read-out: MIC
[36] = E. coli #311 (MP), read-out: MIC

Work on CNCC(=O)Nc1ccc2c(c1O)C(=O)C1=C(O)[C@]3(O)C(=O)C(C(N)=O)=C(O)[C@@H](N(C)C)C3CC1C2 (stereo partly drawn) [F, [4S-(4alpha,12aalpha)]-4-(Dimethylamino)-1,4,4a,5,5a,6,11,12a-octahydro-3,10,12,12a-tetrahydroxy-9-[[(methylamino)acetyl]amino]-1,11-dioxo-2-naphthacenecarboxamide dihydrochloride] yielded an MIC [1] of 0.5 µg/mL, an MIC [2] of 0.5 µg/mL and an MIC [3] of 0.5 µg/mL. It also gave an MIC [4] of 0.5 µg/mL, an MIC [5, 33] of 0.5 µg/mL and an MIC [6] of 0.5 µg/mL. For the same molecule, the MIC [7, 34] was 16 µg/mL, the MIC [8] was 1 µg/mL and the MIC [9] was 16 µg/mL. For the same molecule, the MIC ([10]; read-out: MIC) was 0.5 µg/mL, the MIC [11] was 0.5 µg/mL and the MIC [12] was > 32 µg/mL. It also gave an MIC [13] of 0.25 µg/mL, an MIC [14, 35] of 32 µg/mL and an MIC [15] of 4 µg/mL. The MIC [16] was 0.5 µg/mL, the MIC [17] was 4 µg/mL and the MIC [18] was 0.5 µg/mL. It also gave an MIC [19] of 0.5 µg/mL, an MIC [20] of 0.5 µg/mL and an MIC [21] of 1 µg/mL. For the same molecule, the MIC [22] was 0.5 µg/mL, the MIC [23] was 4 µg/mL and the MIC [24] was 0.5 µg/mL. For the same molecule, the MIC [25] was > 32 µg/mL, the MIC [26, 36] was 0.5 µg/mL and the MIC [27] was 1 µg/mL. It also gave an MIC [28] of 16 µg/mL, an MIC [29] of 1 µg/mL and an MIC [30] of 0.5 µg/mL.

Work on CN(C)[C@@H]1C(O)=C(C(N)=O)C(=O)[C@@]2(O)C(O)=C3C(=O)c4c(ccc(NC(=O)CNCc5ccccc5)c4O)CC3CC12 (stereo partly drawn) [J, [4S-(4alpha,12aalpha)]-4-(Dimethylamino)-1,4,4a,5,5a,6,11,12a-octahydro-3,10,12,12a-tetrahydroxy-1,11-dioxo-9-[[[(phenylmethyl)amino]acetyl]amino]-2-naphthacenecarboxamide dihydrochloride] yielded an MIC [31] of 0.5 µg/mL, an MIC [1] of 4 µg/mL and an MIC [2] of 1 µg/mL. For the same molecule, the MIC [3] was 2 µg/mL, the MIC [4] was 1 µg/mL and the MIC [5, 33] was 4 µg/mL. It also gave an MIC [6] of 2 µg/mL, an MIC [7, 34] of 4 µg/mL and an MIC [8] of 2 µg/mL. For the same molecule, the MIC [9] was 4 µg/mL, the MIC ([10]; read-out: MIC) was 4 µg/mL and the MIC [11] was 0.5 µg/mL. The MIC ([12]; read-out: MIC) was 8 µg/mL, the MIC [13] was 1 µg/mL and the MIC [14] was > 32 µg/mL. For the same molecule, the MIC [15] was 4 µg/mL, the MIC [16] was 4 µg/mL and the MIC ([17]; read-out: MIC) was > 32 µg/mL. For the same molecule, the MIC [18] was 4 µg/mL, the MIC [19] was 0.5 µg/mL and the MIC [20] was 0.5 µg/mL. For the same molecule, the MIC ([21]; S. hemolyticus AVHAH 88-3, read-out: MIC) was 4 µg/mL, the MIC [22] was 1 µg/mL and the MIC [23] was 4 µg/mL. The MIC [24] was 0.25 µg/mL, the MIC ([25]; S. aureus IVES 2943, read-out: MIC) was 4 µg/mL and the MIC [26, 36] was 4 µg/mL. The MIC [27] was 4 µg/mL, the MIC [28] was 16 µg/mL and the MIC [30] was 4 µg/mL.

With CCCCCNCC(=O)Nc1ccc2c(c1O)C(=O)C1=C(O)[C@]3(O)C(=O)C(C(N)=O)=C(O)[C@@H](N(C)C)C3CC1C2 (stereo partly drawn) [K, [4S-(4alpha,12aalpha)]-4-(Dimethylamino)-1,4,4a,5,5a,6,11,12a-octahydro-3,10,12,12a-tetrahydroxy-1,11-dioxo-9-[[(pentylamino)acetyl]amino]-2-naphthacenecarboxamide monohydrochloride] the MIC [31] was 0.5 µg/mL, the MIC [1] was 0.5 µg/mL and the MIC [5] was 0.5 µg/mL. For the same molecule, the MIC [7] was 2 µg/mL, the MIC ([8]; S. aureus UBMS 88-5 Tet M) was 0.5 µg/mL and the MIC [9] was 2 µg/mL. For the same molecule, the MIC [10] was 0.5 µg/mL, the MIC ([12]; read-out: MIC) was 8 µg/mL and the MIC [13] was 0.12 µg/mL. For the same molecule, the MIC [14, 35] was 32 µg/mL, the MIC [15] was 0.5 µg/mL and the MIC ([16]; E. coli UBMS 90-4 Tet M) was 0.5 µg/mL. The MIC ([17]; read-out: MIC) was 4 µg/mL, the MIC [18] was 0.5 µg/mL and the MIC [32] was 0.5 µg/mL. For the same molecule, the MIC [21] was 2 µg/mL, the MIC ([22]; read-out: MIC) was 0.5 µg/mL and the MIC [23] was 0.5 µg/mL. The MIC [25] was 2 µg/mL, the MIC [26] was 0.5 µg/mL and the MIC [27] was 1 µg/mL. The MIC [28] was 1 µg/mL and the MIC ([30]; S. aureus UBMS 90-1 Tet M) was 0.5 µg/mL.

In the case of CN(C)[C@@H]1C(O)=C(C(N)=O)C(=O)[C@@]2(O)C(O)=C3C(=O)c4c(ccc(NC(=O)CNCc5cccs5)c4O)CC3CC12 (stereo partly drawn) [L, [4S-(4-alpha,12aalpha)]-4-(Dimethylamino)-1,4,4a,5,5a,6,11,12a-octahydro-3,10,12,12a-tetrahydroxy-1,11-dioxo-9-[[[(2-thienylmethyl)amino]acetyl]amino]-2-naphthacenecarboxamide dihydrochloride], the MIC [31] is reported as 8 µg/mL, the MIC [1] is reported as 16 µg/mL and the MIC [2] is reported as 8 µg/mL. The MIC ([3]; Enterococcus 12201, read-out: MIC) was 8 µg/mL, the MIC [4] was 8 µg/mL and the MIC [5, 33] was 16 µg/mL. It also gave an MIC [6] of 8 µg/mL, an MIC [7] of 16 µg/mL and an MIC [8] of 8 µg/mL. For the same molecule, the MIC [9] was 16 µg/mL, the MIC [10] was 8 µg/mL and the MIC [11] was 4 µg/mL. The MIC [12] was 32 µg/mL, the MIC [13] was 8 µg/mL and the MIC [14, 35] was > 32 µg/mL. The MIC [15] was 16 µg/mL, the MIC [16] was 8 µg/mL and the MIC [17] was > 32 µg/mL. For the same molecule, the MIC [18] was 16 µg/mL, the MIC ([19]; S. aureus UBMS 90-3) was 4 µg/mL and the MIC ([20]; S. aureus SMITH (MP)) was 4 µg/mL. For the same molecule, the MIC [32] was 32 µg/mL, the MIC [21] was 8 µg/mL and the MIC [22] was 8 µg/mL. It also gave an MIC [23] of 32 µg/mL, an MIC [25] of 16 µg/mL and an MIC [26, 36] of 16 µg/mL. The MIC [27] was 32 µg/mL, the MIC [28] was > 32 µg/mL and the MIC [30] was 8 µg/mL.
